How the values were obtained:
T47D = test: Anticancer activity against human T47D cells assessed as inhibition of tumor cell proliferation after 48 hrs by MTT assay; type: functional, cell-based
MCF7 = test: Anticancer activity against human MCF7 cells assessed as inhibition of tumor cell proliferation after 48 hrs by MTT assay; type: functional, cell-based; settings: MCF7, 48 h
HeLa = test: Anticancer activity against human HeLa cells assessed as inhibition of tumor cell proliferation after 48 hrs by MTT assay; type: functional, cell-based
Ishikawa = test: Anticancer activity against human Ishikawa cells assessed as inhibition of tumor cell proliferation after 48 hrs by MTT assay; type: functional, cell-based
Staphylococcus aureus = test: Antimicrobial activity against Staphylococcus aureus ATCC 6538 assessed as inhibition zone after 24 hrs by agar well diffusion method; type: functional; further: test concentration or dose not given here
Escherichia coli = test: Antimicrobial activity against Escherichia coli ATCC 11229 assessed as inhibition zone after 24 hrs by agar well diffusion method; type: functional; further: test concentration or dose not given here
Candida albicans = test: Antimicrobial activity against Candida albicans ATCC 10231 assessed as inhibition zone after 24 hrs by agar well diffusion method; type: functional; further: test concentration or dose not given here
[1] = target: T1, Tyrosine-protein phosphatase non-receptor type 1 (Homo sapiens, UniProt P18031); test: Inhibition of PTP-1B (unknown origin) using pNPP substrate measured after 30 mins
T1 sequence (P18031 whole entry): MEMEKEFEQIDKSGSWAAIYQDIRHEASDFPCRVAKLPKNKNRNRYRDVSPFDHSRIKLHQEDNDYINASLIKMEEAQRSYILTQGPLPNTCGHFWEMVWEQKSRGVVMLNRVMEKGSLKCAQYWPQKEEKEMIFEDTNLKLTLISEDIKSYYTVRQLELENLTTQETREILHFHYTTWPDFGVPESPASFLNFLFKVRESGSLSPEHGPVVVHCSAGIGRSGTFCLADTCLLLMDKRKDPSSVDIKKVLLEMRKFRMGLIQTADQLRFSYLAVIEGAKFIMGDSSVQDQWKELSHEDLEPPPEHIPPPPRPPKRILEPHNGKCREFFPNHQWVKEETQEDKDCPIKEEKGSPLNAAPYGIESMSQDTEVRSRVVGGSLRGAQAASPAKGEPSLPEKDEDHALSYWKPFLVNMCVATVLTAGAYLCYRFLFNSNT

Row | Compound | IC50 (T47D) | IC50 (MCF7) | IC50 (HeLa) | IC50 (Ishikawa) | diameter of the inhibition zone (DIZ) (Staphylococcus aureus) | diameter of the inhibition zone (DIZ) (Escherichia coli) | diameter of the inhibition zone (DIZ) (Candida albicans) | IC50 [1] | IC50 ([1]; read-out: IC50)
1 | CCOC(=O)c1c(N)sc(N)c1C(=O)OCC | 11.6 µM | 18.6 µM | 40.3 µM | 46.9 µM | 10 mm | <5.5 mm | <5.5 mm | Not Active | –
2 | CCOC(=O)c1c(N)sc(/N=C/c2ccccc2)c1C(=O)OCC | 30.3 µM | 6.1 µM | 31.2 µM | 37.9 µM | 9 mm | <5.5 mm | 8 mm | Not Active | –
3 | CCOC(=O)c1c(N)sc(/N=C/c2ccc([N+](=O)[O-])cc2)c1C(=O)OCC | 2.3 µM | 1.3 µM | 14.1 µM | 141 µM | 8.5 mm | <5.5 mm | <5.5 mm | – | 6.43 µM
4 | CCOC(=O)c1c(N)sc(/N=C/c2ccc(Cl)cc2)c1C(=O)OCC | 12.1 µM | 6.8 µM | 25.2 µM | 27.1 µM | <5.5 mm | <5.5 mm | <5.5 mm | Not Active | –
5 | CCOC(=O)c1c(N)sc(/N=C/c2ccc(F)cc2)c1C(=O)OCC | 22.5 µM | 22.5 µM | 30.8 µM | 32.1 µM | 10 mm | <5.5 mm | 8 mm | Not Active | –
6 | CCOC(=O)c1c(N)sc(/N=C/c2ccc(Br)cc2)c1C(=O)OCC | 13.2 µM | 12.5 µM | 25.9 µM | 46.1 µM | <5.5 mm | <5.5 mm | <5.5 mm | – | 6.54 µM
7 | CCOC(=O)c1c(N)sc(/N=C/c2ccc(OC)cc2)c1C(=O)OCC | 31.9 µM | 16.2 µM | 189 µM | 108 µM | 9 mm | <5.5 mm | 9 mm | Not Active | –
8 | CCOC(=O)c1c(N)sc(/N=C/c2ccc(C)cc2)c1C(=O)OCC | 37.2 µM | 8.9 µM | 41.9 µM | 52.5 µM | 10 mm | <5.5 mm | 8 mm | Not Active | –
9 | CCOC(=O)c1c(N)sc(/N=C/c2ccc(N(C)C)cc2)c1C(=O)OCC | 16.7 µM | 5.7 µM | 131 µM | 73 µM | 11.5 mm | <5.5 mm | 8 mm | – | 7.32 µM
10 | CCOC(=O)c1c(N)sc(/N=C/c2ccco2)c1C(=O)OCC | 14.9 µM | 62.2 µM | 46.7 µM | 69.3 µM | 10.5 mm | <5.5 mm | <5.5 mm | Not Active | –
11 | CCOC(=O)c1c(N)sc(/N=C/c2ccc([N+](=O)[O-])o2)c1C(=O)OCC | 16 µM | 2.4 µM | 4.7 µM | 7.6 µM | 22 mm | 16 mm | >22 mm | – | 7.12 µM
12 | CCOC(=O)c1c(N)sc(/N=C/c2cccs2)c1C(=O)OCC | 7.1 µM | 26.1 µM | 21.3 µM | 39.8 µM | 10 mm | <5.5 mm | <5.5 mm | – | 14.8 µM
13 | CCOC(=O)c1c(N)sc(/N=C/c2ccncc2)c1C(=O)OCC | 8.6 µM | 92.2 µM | 35.4 µM | 119 µM | <5.5 mm | <5.5 mm | 7 mm | Not Active | –
14 | C[C@@H]1[C@H](O)[C@@H](C)/C=C/C=C/C=C/C=C/C=C/C=C/C=C/[C@H](O[C@@H]2O[C@H](C)[C@@H](O)[C@H](N)[C@@H]2O)C[C@@H]2O[C@](O)(C[C@@H](O)C[C@@H](O)[C@H](O)CC[C@@H](O)C[C@@H](O)CC(=O)O[C@H]1C)C[C@H](O)[C@H]2C(=O)O [AMPHOTERICIN B] | – | – | – | – | 15 mm | – | – | – | –
15 | CC1(C)S[C@@H]2[C@H](NC(=O)[C@H](N)c3ccccc3)C(=O)N2[C@H]1C(=O)O [AMPICILLIN] | – | – | – | – | – | 19 mm | 14 mm | – | –
16 | COc1cccc2c1C(=O)c1c(O)c3c(c(O)c1C2=O)C[C@@](O)(C(=O)CO)C[C@@H]3O[C@H]1C[C@H](N)[C@H](O)[C@H](C)O1 [DOXORUBICIN] | 15.5 µM | 6.75 µM | 7.04 µM | 9.02 µM | – | – | – | – | –

Reference: ChEMBL document CHEMBL3352002, “Discovery of diethyl 2,5-diaminothiophene-3,4-dicarboxylate derivatives as potent anticancer and antimicrobial agents and screening of anti-diabetic activity: synthesis and in vitro biological evaluation. Part 1” (Eur J Med Chem, 2014)
